Laboratory results from patent publication US8063071B2 (GlaxoSmithKline, LLC, priority 2007, dated 2011).
Where a name gives a salt, the structure may show the parent alone.

Legend:
[1] = target: T1, Recombinant human IKKβ (residues 1-737) (Homo sapiens, UniProt O14920); assay: IKK2 assay (TR-FRET); type: biochemical; conditions: ATP 1 μM final, read-out: pIC50 against IKK2 (converted)
T1 construct: Recombinant human IKKβ (residues 1-737); GST (C); made in house
T1 sequence (O14920 1-737): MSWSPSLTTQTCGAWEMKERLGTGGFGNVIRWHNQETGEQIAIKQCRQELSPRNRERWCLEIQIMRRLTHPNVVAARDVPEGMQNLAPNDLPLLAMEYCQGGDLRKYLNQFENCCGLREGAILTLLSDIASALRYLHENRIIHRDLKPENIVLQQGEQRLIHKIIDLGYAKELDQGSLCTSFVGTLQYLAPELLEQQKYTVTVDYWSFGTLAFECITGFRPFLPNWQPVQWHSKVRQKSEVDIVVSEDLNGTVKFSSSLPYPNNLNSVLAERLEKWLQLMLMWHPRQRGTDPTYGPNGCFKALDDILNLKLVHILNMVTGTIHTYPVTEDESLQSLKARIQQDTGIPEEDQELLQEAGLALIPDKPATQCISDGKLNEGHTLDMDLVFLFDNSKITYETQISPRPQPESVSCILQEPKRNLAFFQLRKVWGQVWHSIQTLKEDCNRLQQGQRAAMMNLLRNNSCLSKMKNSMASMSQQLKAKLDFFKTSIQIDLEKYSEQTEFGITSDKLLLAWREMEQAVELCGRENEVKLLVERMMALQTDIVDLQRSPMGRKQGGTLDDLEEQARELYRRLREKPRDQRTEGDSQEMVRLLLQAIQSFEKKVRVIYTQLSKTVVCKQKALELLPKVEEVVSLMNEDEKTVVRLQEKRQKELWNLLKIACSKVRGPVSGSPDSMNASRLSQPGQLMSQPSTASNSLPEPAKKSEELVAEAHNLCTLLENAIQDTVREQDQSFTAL
In short: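 Baculovirus-expressed C-terminal GST-tagged IKKβ (0.5-5 nM final) in HEPES pH 7.4, MgCl2, CHAPS, DTT, BSA with 1.7% DMSO; 25 nM GST-IB substrate and 1 μM ATP, 15 min at room temperature. EDTA stop; phospho-Ser32/36 detected by Eu-antibody/APC-anti-GST TR-FRET, 665/620 nm ratio.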

[2] = system: human monocyte stimulated cytokine production (TNF-α); assay: Monocyte assay (LPS-stimulated TNF-α production); type: cell-based; conditions: 24 h, 200 ng/mL LPS, TNF-α by ELISA
In short: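 Human CD14+ monocytes were purified from blood and plated at 1×10^6 cells/mL in RPMI 1640 with 10% FBS. Compound was added 30 min before stimulation with 200 ng/mL LPS (0.1% DMSO final), followed by 24 hrs at 37 C. Supernatant TNF-α was measured by ELISA, and viability by trypan blue exclusion.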

SMILES	IC50 [1] [µM]	IC50 [2] [µM]
CCS(=O)(=O)N1CCC(c2c[nH]c3c(C(N)=O)cc(-c4ccc(CNC(=O)c5ccncc5)cc4)cc23)CC1 [Example 129, 3-[1-(ethylsulfonyl)-4-piperidinyl]-5-(4-{[(4-pyridinylcarbonyl)amino]methyl}phenyl)-1H-indole-7-carboxamide]	≤ 10	≤ 1.5
CCS(=O)(=O)N1CCC(c2c[nH]c3c(C(N)=O)cc(-c4ccc(CNC(=O)C5CCCC5)cc4)cc23)CC1 [Example 130, 5-(4-{[(cyclopentylcarbonyl)amino]methyl}phenyl)-3-[1-(ethylsulfonyl)-4-piperidinyl]-1H-indole-7-carboxamide]	≤ 10	≤ 1.5
CCS(=O)(=O)N1CCC(c2c[nH]c3c(C(N)=O)cc(-c4ccc(CNC(=O)c5ccco5)cc4)cc23)CC1 [Example 131, 3-[1-(ethylsulfonyl)-4-piperidinyl]-5-(4-{[(2-furanylcarbonyl)amino]methyl}phenyl)-1H-indole-7-carboxamide]	≤ 10	≤ 1.5
CCS(=O)(=O)N1CCC(c2c[nH]c3c(C(N)=O)cc(-c4ccc(CCNC(=O)C5CCC5)cc4)cc23)CC1 [Example 132, 5-(4-{2-[(cyclobutylcarbonyl)amino]ethyl}phenyl)-3-[1-(ethylsulfonyl)-4-piperidinyl]-1H-indole-7-carboxamide]	≤ 10	> 1
CCS(=O)(=O)N1CCC(c2c[nH]c3c(C(N)=O)cc(-c4ccc(CCNC(=O)C5CCCCC5)cc4)cc23)CC1 [Example 133, 5-(4-{2-[(cyclohexylcarbonyl)amino]ethyl}phenyl)-3-[1-(ethylsulfonyl)-4-piperidinyl]-1H-indole-7-carboxamide]	≤ 10	> 1
CCS(=O)(=O)N1CCC(c2c[nH]c3c(C(N)=O)cc(-c4cccc(CCNC(=O)C5CCCCC5)c4)cc23)CC1 [Example 134, 5-(3-{2-[(cyclohexylcarbonyl)amino]ethyl}phenyl)-3-[1-(ethylsulfonyl)-4-piperidinyl]-1H-indole-7-carboxamide]	≤ 10	> 1
CCN1CCN(c2ccc(-c3cc(C(N)=O)c4[nH]cc(C5CCN(S(=O)(=O)CC)CC5)c4c3)cn2)CC1 [Example 136, 5-[6-(4-ethyl-1-piperazinyl)-3-pyridinyl]-3-[1-(ethylsulfonyl)-4-piperidinyl]-1H-indole-7-carboxamide trifluoroacetate]	≤ 10	> 1
CCS(=O)(=O)N1CCC(c2c[nH]c3c(C(N)=O)cc(-c4ccc(CNC)cc4)cc23)CC1 [Example 139, 3-[1-(ethylsulfonyl)-4-piperidinyl]-5-{4-[(methylamino)methyl]phenyl}-1H-indole-7-carboxamide trifluoroacetate]	≤ 10	≤ 1.5
CCS(=O)(=O)N1CCC(c2c[nH]c3c(C(N)=O)cc(-c4ccc(CNC(C)C)cc4)cc23)CC1 [Example 140, 3-[1-(ethylsulfonyl)-4-piperidinyl]-5-(4-{[(1-methylethyl)amino]methyl}phenyl)-1H-indole-7-carboxamide]	≤ 10	> 1
CCCNCc1ccc(-c2cc(C(N)=O)c3[nH]cc(C4CCN(S(=O)(=O)CC)CC4)c3c2)cc1 [Example 141, 3-[1-(ethylsulfonyl)-4-piperidinyl]-5-{4-[(propylamino)methyl]phenyl}-1H-indole-7-carboxamide trifluoroacetate]	≤ 10	≤ 1.5
CCS(=O)(=O)N1CCC(c2c[nH]c3c(C(N)=O)cc(-c4ccc(CNC5CCCC5)cc4)cc23)CC1 [Example 143, 5-{4-[(cyclopentylamino)methyl]phenyl}-3-[1-(ethylsulfonyl)-4-piperidinyl]-1H-indole-7-carboxamide trifluoroacetate]	≤ 10	> 1
CCS(=O)(=O)N1CCC(c2c[nH]c3c(C(N)=O)cc(-c4ccc(CNC5CCC5)cc4)cc23)CC1 [Example 144, 5-{4-[(cyclobutylamino)methyl]phenyl}-3-[1-(ethylsulfonyl)-4-piperidinyl]-1H-indole-7-carboxamide]	≤ 10	≤ 1.5
CCS(=O)(=O)N1CCC(c2c[nH]c3c(C(N)=O)cc(-c4ccc(CN(C)C)cc4)cc23)CC1 [Example 146, 5-{4-[(dimethylamino)methyl]phenyl}-3-[1-(ethylsulfonyl)-4-piperidinyl]-1H-indole-7-carboxamide]	≤ 10	> 1
CCN(CC)Cc1ccc(-c2cc(C(N)=O)c3[nH]cc(C4CCN(S(=O)(=O)CC)CC4)c3c2)cc1 [Example 147, 5-{4-[(diethylamino)methyl]phenyl}-3-[1-(ethylsulfonyl)-4-piperidinyl]-1H-indole-7-carboxamide]	≤ 10	> 1
CCS(=O)(=O)N1CCC(c2c[nH]c3c(C(N)=O)cc(-c4ccc(CN[C@H](C)CO)cc4)cc23)CC1 [Example 151, 3-[1-(ethylsulfonyl)-4-piperidinyl]-5-[4-({[(1R)-2-hydroxy-1-methylethyl]amino}methyl)phenyl]-1H-indole-7-carboxamide trifluoroacetate]	≤ 10	≤ 1.5
CCS(=O)(=O)N1CCC(c2c[nH]c3c(C(N)=O)cc(-c4ccc(CNC(CO)CO)cc4)cc23)CC1 [Example 153, 3-[1-(ethylsulfonyl)-4-piperidinyl]-5-[4-({[2-hydroxy-1-(hydroxymethyl)ethyl]amino}methyl)phenyl]-1H-indole-7-carboxamide trifluoroacetate]	≤ 10	> 1
CCCC(C)NCc1cccc(-c2cc(C(N)=O)c3[nH]cc(C4CCN(S(=O)(=O)CC)CC4)c3c2)c1 (stereo not drawn) [Example 154, 3-[1-(ethylsulfonyl)-4-piperidinyl]-5-(3-{[(1-methylbutyl)amino]methyl}phenyl)-1H-indole-7-carboxamide trifluoroacetate]	≤ 10	≤ 1.5
CC[C@@H](C)NCc1cccc(-c2cc(C(N)=O)c3[nH]cc(C4CCN(S(=O)(=O)CC)CC4)c3c2)c1 [Example 155, 3-[1-(ethylsulfonyl)-4-piperidinyl]-5-[3-({[(1R)-1-methylpropyl]amino}methyl)phenyl]-1H-indole-7-carboxamide trifluoroacetate]	≤ 10	≤ 1.5
CCS(=O)(=O)N1CCC(c2c[nH]c3c(C(N)=O)cc(-c4cccc(CNCC(C)C)c4)cc23)CC1 [Example 156, 3-[1-(ethylsulfonyl)-4-piperidinyl]-5-(3-{[(2-methylpropyl)amino]methyl}phenyl)-1H-indole-7-carboxamide]	≤ 10	≤ 1.5
CC[C@H](C)NCc1cccc(-c2cc(C(N)=O)c3[nH]cc(C4CCN(S(=O)(=O)CC)CC4)c3c2)c1 [Example 157, 3-[1-(ethylsulfonyl)-4-piperidinyl]-5-[3-({[(1S)-1-methylpropyl]amino}methyl)phenyl]-1H-indole-7-carboxamide acetate]	≤ 10	≤ 1.5
CCS(=O)(=O)N1CCC(c2c[nH]c3c(C(N)=O)cc(-c4ccc(CNC(=O)C5CC5)cc4)cc23)CC1 [Example 158, 5-(4-{[(cyclopropylcarbonyl)amino]methyl}phenyl)-3-[1-(ethylsulfonyl)-4-piperidinyl]-1H-indole-7-carboxamide]	≤ 10	> 1
CCS(=O)(=O)N1CCC(c2c[nH]c3c(C(N)=O)cc(-c4ccc(CNC(=O)C5CCC5)cc4)cc23)CC1 [Example 159, 5-(4-{[(cyclobutylcarbonyl)amino]methyl}phenyl)-3-[1-(ethylsulfonyl)-4-piperidinyl]-1H-indole-7-carboxamide]	≤ 10	> 1
CCS(=O)(=O)N1CCC(c2c[nH]c3c(C(N)=O)cc(-c4ccc(CNC(=O)Cc5cccs5)cc4)cc23)CC1 [Example 160, 3-[1-(ethylsulfonyl)-4-piperidinyl]-5-(4-{[(2-thienylacetyl)amino]methyl}phenyl)-1H-indole-7-carboxamide]	≤ 10	≤ 1.5
CCS(=O)(=O)N1CCC(c2c[nH]c3c(C(N)=O)cc(-c4ccc(CN[C@@H](C)C(C)C)cc4)cc23)CC1 [Example 161, 5-[4-({[(1S)-1,2-dimethylpropyl]amino}methyl)phenyl]-3-[1-(ethylsulfonyl)-4-piperidinyl]-1H-indole-7-carboxamide trifluoroacetate]	≤ 10	≤ 1.5
